Earlier results in US20170119788A1, “METHODS AND COMPOSITIONS FOR DERMATOLOGICAL USE COMPRISING FLUTICASONE AND MOMETASONE AND BIOPOLYMERS” (APEX LABORATORIES PRIVATE LIMITED, priority 2015, published 2017).
Where two headings read alike, the source gives them in different places.

Tests used:
[1] = molecular target: T1, human glucocorticoid receptors (Homo sapiens, UniProt P04150); conditions: in vitro, result in words
T1 sequence (P04150 1-777): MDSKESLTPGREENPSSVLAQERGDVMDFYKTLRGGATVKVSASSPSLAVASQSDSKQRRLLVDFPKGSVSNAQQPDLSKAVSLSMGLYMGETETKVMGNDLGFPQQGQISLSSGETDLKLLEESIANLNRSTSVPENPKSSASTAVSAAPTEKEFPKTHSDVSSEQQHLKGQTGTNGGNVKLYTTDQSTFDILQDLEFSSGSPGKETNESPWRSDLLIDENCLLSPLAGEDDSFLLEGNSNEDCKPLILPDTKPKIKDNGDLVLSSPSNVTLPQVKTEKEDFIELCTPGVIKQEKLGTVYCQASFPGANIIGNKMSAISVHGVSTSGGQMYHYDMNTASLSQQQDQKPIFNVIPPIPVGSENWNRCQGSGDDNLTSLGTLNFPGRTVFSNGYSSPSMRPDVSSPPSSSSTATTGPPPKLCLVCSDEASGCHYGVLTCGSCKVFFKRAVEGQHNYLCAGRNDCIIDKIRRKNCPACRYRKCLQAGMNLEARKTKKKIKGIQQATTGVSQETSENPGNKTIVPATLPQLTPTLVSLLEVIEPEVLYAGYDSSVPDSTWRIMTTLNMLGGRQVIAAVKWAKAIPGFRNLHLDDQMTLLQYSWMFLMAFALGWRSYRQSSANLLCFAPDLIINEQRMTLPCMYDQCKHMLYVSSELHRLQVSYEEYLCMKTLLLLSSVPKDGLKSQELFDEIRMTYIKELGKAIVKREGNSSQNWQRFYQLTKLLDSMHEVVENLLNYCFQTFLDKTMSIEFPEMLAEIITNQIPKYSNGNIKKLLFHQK

[2] = system: erythrocytes; conditions: result in words
[3] = molecular target: T2, human transcortin (Homo sapiens, UniProt P08185); conditions: result in words
T2 sequence (P08185 23-405): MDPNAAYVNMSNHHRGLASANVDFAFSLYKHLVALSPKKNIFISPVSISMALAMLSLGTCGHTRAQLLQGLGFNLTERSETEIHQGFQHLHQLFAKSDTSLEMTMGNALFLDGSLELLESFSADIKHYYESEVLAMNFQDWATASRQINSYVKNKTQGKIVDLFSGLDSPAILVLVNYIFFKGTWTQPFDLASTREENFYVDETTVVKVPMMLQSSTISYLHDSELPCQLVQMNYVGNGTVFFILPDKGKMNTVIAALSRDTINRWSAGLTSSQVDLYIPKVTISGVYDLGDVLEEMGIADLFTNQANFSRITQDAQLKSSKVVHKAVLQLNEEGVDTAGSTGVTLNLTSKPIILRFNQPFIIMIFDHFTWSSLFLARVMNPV

[4] = not given; remark: listed apart in the source
[5] = system: human plasma proteins; conditions: average
[6] = not given; remark: listed apart in the source
[7] = not given; remark: listed apart in the source

For `CCC(=O)O[C@]1(C(=O)SCF)[C@H](C)C[C@H]2[C@@H]3C[C@H](F)C4=CC(=O)C=C[C@]4(C)[C@@]3(F)[C@@H](O)C[C@@]21C` [Fluticasone propionate, S-(fluoromethyl)6α,9-difluoro-11β-17-dihydroxy-16α-methyl-3-oxoandrosta-1,4-diene-17β-carbothioate, 17-propionate], the “affinity and agonist activity at human glucocorticoid receptors” value [1] is listed as “strong affinity and agonist activity”, the “apparent volume of distribution, average” value is listed as 4.2 L/kg and the “terminal half-life, average” value is listed as 7.2 h. The binding to erythrocytes [2] was “weakly and reversibly bound”, the “binding to human transcortin” value [3] was “not significantly bound” and the “solubility in dimethyl sulfoxide and dimethylformamide” value ([4]; dimethyl sulfoxide and dimethylformamide) was “freely soluble”. The “solubility in methanol and 95% ethanol” value ([4]; methanol and 95% ethanol) was “slightly soluble”, the solubility in water ([4]; water) was “practically insoluble” and the “percentage bound to human plasma proteins” value [5] was 91%.

In the case of `C[C@@H]1C[C@H]2[C@@H]3CCC4=CC(=O)C=C[C@]4(C)[C@@]3(Cl)[C@@H](O)C[C@]2(C)[C@@]1(OC(=O)c1ccco1)C(=O)CCl` [Mometasone Furoate, 9α, 21-dichloro-11β, 17-dihydroxy-16α-methylpregna-1,4-diene-3, 20-dione 17-(2-Furoate)], the “bioavailability of an inhaled dose” value ([6]; compared with IV administration) is listed as “less than 1%”, the “excretion in the feces” value ([6]; up to 7 days) is listed as 74% and the “excretion in the urine” value ([6]; up to 7 days) is listed as 8%. The “solubility in ethyl alcohol” value ([7]; ethyl alcohol) was “moderately soluble”, the solubility in octanol ([7]; octanol) was “slightly soluble” and the solubility in water ([7]; water) was “practically insoluble”.
